Laboratory results published in patent publication US6262305A, “Process and intermediates for preparing 3-(substituted phenyl)-5-(thienyl or furyl)-1,2,4-triazole compounds” (priority 1999, dated 2001).

Test system: Cotton Aphid
Assay: Seed Treatment Test vs. Cotton Aphid on Squash
Type: in vivo, Aphis gossypii
Protocol: Seed Treatment Test vs. Cotton Aphid on Squash
Four-inch pots were filled two-thirds full with sieved soil mix (70 sand/30 pulverized soil). Compound was applied as a suspension to the center in 4 ml volume. Squash seed placed in the applied chemical zone was covered with soil mix 1 cm deep. […] The plants were then infested with aphids. Four days later, aphid counts were made.

SMILES	% Ctrl., cotton aphid on Squash - 1st True Leaf (0.05 mg/pot) [%]	Cotton aphid counts on Squash - 1st True Leaf, Mean (0.05 mg/pot)	% Ctrl., cotton aphid on Squash - cotyledon (0.05 mg/pot) [%]	Cotton aphid counts on Squash - cotyledon, Mean (0.05 mg/pot)	% Ctrl., cotton aphid on Squash - 1st True Leaf (0.2 mg/pot) [%]	Cotton aphid counts on Squash - 1st True Leaf, Mean (0.2 mg/pot)	% Ctrl., cotton aphid on Squash - cotyledon (0.2 mg/pot) [%]	Cotton aphid counts on Squash - cotyledon, Mean (0.2 mg/pot)	% Ctrl., cotton aphid on Squash - 1st True Leaf (0.8 mg/pot) [%]	Cotton aphid counts on Squash - 1st True Leaf, Mean (0.8 mg/pot)	% Ctrl., cotton aphid on Squash - cotyledon (0.8 mg/pot) [%]	Cotton aphid counts on Squash - cotyledon, Mean (0.8 mg/pot)	% Ctrl., cotton aphid on Squash - 1st True Leaf (3.2 mg/pot) [%]	Cotton aphid counts on Squash - 1st True Leaf, Mean (3.2 mg/pot)	% Ctrl., cotton aphid on Squash - cotyledon (3.2 mg/pot) [%]	Cotton aphid counts on Squash - cotyledon, Mean (3.2 mg/pot)	% Ctrl., cotton aphid on Squash - 1st True Leaf (12.8 mg/pot) [%]	Cotton aphid counts on Squash - 1st True Leaf, Mean (12.8 mg/pot)	% Ctrl., cotton aphid on Squash - cotyledon (12.8 mg/pot) [%]	Cotton aphid counts on Squash - cotyledon, Mean (12.8 mg/pot)
O=[N+]([O-])NC1=NCCN1Cc1ccc(Cl)nc1 [Imidacloprid, reference compound]	58.5	35.0	97.6	2.5	88.4	9.8	100	0	100.0	0.0	100	0								
Cn1nc(-c2c(F)cccc2Cl)nc1-c1sc(Cl)c(Cl)c1Cl [Compound 2, 3-(2-chloro-6-fluorophenyl)-5-(3,4,5-trichlorothien-2-yl)-1-methyl[1,2,4]triazole]									85.8	12.0	54.4	48.0	95.9	3.5	93.1	7.3	96.1	3.3	93.3	7.0
Cn1nc(-c2c(Cl)cccc2Cl)nc1-c1sc(Cl)c(Cl)c1Cl [Compound 45, 3-(2,6-dichlorophenyl)-5-(3,4,5-trichlorothien-2-yl)-1-methyl[1,2,4]triazole]									51.7	40.8	0	165.5	77.8	18.8	52.3	50.3	90.2	8.3	24.0	80.0
